The target in test [1] is T1, CYP3A4 (Homo sapiens, UniProt P08684). In words: ROS-based fluorescence assay (DCFH-DA oxidation) of inhibition of CYP3A4-mediated testosterone oxidation. To be noted: ROS-based IC50, recombinant CYP3A4 microsomes, testosterone substrate 40 μM. Here is the method: (§1) 1′-hydroxymidazolam and microsomes (SUPERSOMES™) prepared from baculovirus-infected insect cells containing recombinant heterologously expressed human CYP plus NADPH CYP reductase were purchased from GenTest Corp. (Woburn, Mass., United States of America). 6β-hydroxytestosterone and 11α-hydroxyprogesterone were obtained from Steraloids Inc. (Wilton, N.H., United States of America).
T1 sequence (P08684 2-503 limits assumed): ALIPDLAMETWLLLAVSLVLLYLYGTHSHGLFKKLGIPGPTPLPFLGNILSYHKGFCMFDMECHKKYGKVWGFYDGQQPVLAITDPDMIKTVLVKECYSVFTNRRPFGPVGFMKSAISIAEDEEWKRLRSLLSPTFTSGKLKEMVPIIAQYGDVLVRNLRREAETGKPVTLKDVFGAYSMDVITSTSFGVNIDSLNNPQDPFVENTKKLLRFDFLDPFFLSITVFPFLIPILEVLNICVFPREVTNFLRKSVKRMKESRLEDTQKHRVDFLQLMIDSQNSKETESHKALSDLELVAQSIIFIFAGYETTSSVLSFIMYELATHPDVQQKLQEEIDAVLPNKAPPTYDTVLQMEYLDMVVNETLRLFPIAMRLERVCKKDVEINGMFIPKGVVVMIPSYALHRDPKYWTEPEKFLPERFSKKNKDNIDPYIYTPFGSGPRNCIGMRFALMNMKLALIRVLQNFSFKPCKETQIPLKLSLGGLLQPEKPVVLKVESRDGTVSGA
Stock solutions of DCFH-DA (2.5 mM) and NADPH (20 mM) were prepared prior to each experiment in methanol and buffer, respectively. Substrates and inhibitors were prepared in 100% methanol and stored at −20° C. […] Unless otherwise indicated, testosterone were added to the reactions at a final concentration of 40 μM. An equal volume of methanol was added to samples containing no substrate and served as controls. Reactions were performed at 37° C. in 96-well black bottom plates. Inhibitors were added at varying concentrations from stock solutions prepared in either water or methanol. Final methanol concentrations were kept constant among samples (1%, v/v) to eliminate variability in the rate of fluorescence production due to the effect of methanol on CYP activity. […] The concentration of DCF in the reactions was determined using a standard curve constructed with authentic DCF. […]

Test [2] concerns the target T1, CYP3A4. In words: Conventional LC-UV assay quantifying 6β-hydroxytestosterone formation by CYP3A4. As to conditions: LC-based IC50, recombinant CYP3A4 microsomes, testosterone substrate, LC-UV quantification of 6β-hydroxytestosterone. Here is the method: as §1
Inhibition of CYP3A4-mediated oxidation of testosterone was measured by 6β-hydroxytestosterone formation. The kinetics of 6β-hydroxytestosterone formation by CYP3A4 was determined and compared to rate of fluorescence production. Reactions consisted of varying concentrations of testosterone, 50 pmol CYP3A4 per ml, and buffer to a final volume of one milliliter. Reactions were performed at 37° C. and were started upon addition of 1 mM NADPH. […] Samples were placed immediately on ice and the precipitated protein was removed by centrifugation for four minutes at 13,000 rpm. The supernatant was transferred to HPLC vials for analysis.
HPLC analysis was performed using an Agilent 1100 Series HPLC system (Agilent Technologies, Palo Alto, Calif., United States of America) equipped with an online UV-detector. […]

Each structure is given as a SMILES string.

A word on the IC50: it is the concentration that gives 50% inhibition.

Take `CC[C@H]1OC(=O)[C@H](C)[C@@H](O[C@H]2C[C@@](C)(OC)[C@@H](O)[C@H](C)O2)[C@H](C)[C@@H](O[C@@H]2O[C@H](C)C[C@H](N(C)C)[C@H]2O)[C@](C)(O)C[C@@H](C)C(=O)[C@H](C)[C@@H](O)[C@]1(C)O` [Erythromycin]: the IC50 at CYP3A4 [1] is 27.6 µM; at CYP3A4 [2] it was 1.7 µM.
Turning to `CC(=O)[C@H]1CC[C@H]2[C@@H]3CCC4=CC(=O)CC[C@]4(C)[C@H]3CC[C@]12C` [Progesterone], the results for the half-maximal inhibitory concentration (IC50) on CYP3A4 [1] and at CYP3A4 [2] were 27.6 µM and 22.6 µM, respectively.
